Measurements reported in PMC12040169 (PLOS Biology, 2025).

Assay: in vitro
Details: human, hela cells, % viability

Structure (SMILES) | viability at 28.5 h, 10 µM [%]
CCOc1ccccc1NC(=O)CSc1nc(N)cc(O)n1 [CBK268075] | 107
Cn1cc(N2CCC(NC(=O)c3ccc(C#N)cc3)C2=O)cn1 (stereo not drawn) [CBK305182] | 94
COc1cc(/C=C(/C#N)c2ccc(C(=O)O)cc2)ccc1OCc1cccc([N+](=O)[O-])c1 [CBK269057] | 108
FC(F)(F)c1ccc(OC2CCNCC2)nc1 [CBK113287] | 83
CC(C)S(=O)(=O)n1ccn(-c2ccc(Oc3ccccc3)cc2)c1=O [CBK106644] | 86.3
COc1cccc(CCN2CCC(C(=O)NC(C)c3cccc4ccccc34)CC2)c1 (stereo not drawn) [CBK148650] | 93.3
c1ccc(Cc2nn3c(COc4ccccc4)nnc3s2)cc1 [CBK267163] | 88
CSc1ncc(Cl)c(C(=O)Nc2sc3c(c2C(=O)NCc2cccnc2)CCC3)n1 [CBK268710] | 95.9
CN1CCN(C(=O)c2cc(Br)cnc2NCCOc2ccccc2)CC1 [CBK076231] | 92
Cc1ccc(N2C(=O)C(CC(=O)Nc3cccc(F)c3)N(CCc3ccncc3)C2=O)cc1 (stereo not drawn) [CBK268891] | 96.5
Cc1cc(S(=O)(=O)NCc2cc(F)c(F)c(F)c2)c(C)cc1Cl [CBK043813] | 85
Cc1cnc2[nH]c(C3CCCN(C(=O)c4cccnc4)C3)cc2c1 (stereo not drawn) [CBK285168] | 86.1
O=S(=O)(Nc1cc(NCCCN2CCOCC2)c2occc2c1)c1ccccc1C(F)(F)F [CBK067838C] | 94.9
OC(CNC1CCN(Cc2ccccc2)CC1)COc1ccc2c(c1)OCO2 (stereo not drawn) [CBK074645] | 96.5
Cc1ccc(S(=O)(=O)Nc2sc3c(c2C(=O)N2CCN(C)CC2)CCCC3)cc1[N+](=O)[O-] [CBK028650] | 93.9
Cc1ccc(S(=O)(=O)N(CC(=O)Nc2ccccc2C(=O)O)c2ccccc2)cc1 [CBK264034] | 94.6
COc1ccc(C2c3c(-c4cc(C)c(C)cc4O)n[nH]c3C(=O)N2Cc2cccnc2)cc1OC (stereo not drawn) [CBK268846] | 106
CC1(C(=O)N2CCc3onc(-c4ccccc4F)c3C2)CCCO1 (stereo not drawn) [CBK282660] | 88.1
O=C(O)c1ccc(CSc2nnc(Cc3ccccc3)[nH]2)o1 [CBK269208] | 99.3
CCOc1ccc2ccccc2c1CNCCc1ccc(S(N)(=O)=O)cc1 [CBK268732C] | 88.7
O=S1(=O)CC(OS(=O)(=O)c2ccc(Cl)cc2)C(OS(=O)(=O)c2ccc(Cl)cc2)C1 (stereo not drawn) [CBK262049] | 104
O=C(Nc1cccc(C(F)(F)F)c1)N1CCN(CCCCc2ccc(F)cc2)CC1 [CBK013363C] | 90.4

Structure (SMILES) | viability at 28.5 h, 10 µM [%]
CC(Oc1cccc2cccnc12)C(=O)N/N=C/c1ccc(-c2ccc(Br)cc2)o1 (stereo not drawn) [CBK262838] | 93.4
Cc1cc(-c2cc(=O)n(Cc3ccccc3F)nc2C2CC2)on1 [CBK284366] | 87.2
Cc1cccc(N/C=C(/C#N)c2nc(-c3ccc4c(c3)OCO4)cs2)c1C [CBK263013] | 96.4
Nc1ncc(-c2ccccc2CO)nc1NC1CCOCC1 [CBK063799] | 98.7
COC(=O)Nc1nc2cc(F)c(Cl)cc2[nH]1 [CBK026927] | 102
O=C(N[C@@H]1CNCCC[C@H]1O)c1ccc(OCc2ccccc2)cc1 [CBK289064] | 100
CC1CN(c2cc(CO)c(F)cn2)CC2(CCOC2C)O1 (stereo not drawn) [CBK304754] | 101
O=C(Cn1c2ccccc2c(=O)c2ccccc21)Nc1ccc(-n2cncn2)nc1 [CBK295350] | 93.1
CCN(CC(=O)NCc1ccc(F)cc1)S(=O)(=O)c1ccccc1C#N [CBK305842] | 91.1
CC1CCCN(C(=O)c2coc(COc3ccc(F)cc3)n2)C1 (stereo not drawn) [CBK306874] | 85.5
CN1CCN(c2cc(-c3cccc4cccnc34)nc3ccnn23)CC1 [CBK037013] | 90.8
Cc1onc(-c2ccccc2Cl)c1C(=O)Nc1ccc(S(=O)(=O)NCC2CCCO2)cc1 (stereo not drawn) [CBK267536] | 88.9
CCC(C)C(=O)N1CCC(c2nnc3n2CCCCC3)CC1 (stereo not drawn) [CBK282260] | 85.4
COc1cc(C(=O)N2CCC3(CC2)CC(=O)c2cc(C)ccc2O3)cc(OC)c1C [CBK167805] | 99.6
O=C(CS(=O)(=O)c1ccccc1)Nc1cnc(-c2ccc(F)cc2)c(-c2ccoc2)n1 [CBK037168] | 107
Cc1nnc2sc(-c3cccc(NC(=S)NC(=O)c4cc5ccccc5o4)c3)nn12 [CBK267282] | 87.4
COc1cc(-c2cncc(N[C@@H](C)c3ccccc3)n2)cc(OC)c1OC [CBK065551] | 104
Cc1ncccc1OC1(C(=O)NCc2cn3c(n2)SCC3)CCNCC1 [CBK307649] | 103
c1ccc(COc2ccc(-n3cnnn3)cc2)nc1 [CBK288196] | 83.5
CC(=O)N1CCC2(C/C=C/C[C@H]3CN(C(=O)Cc4cccc(F)c4)CC[C@H]3NC(=O)CNC2=O)CC1 [CBK292103] | 93.6
Cc1cccc(Cn2cnc(NC(=O)COc3ccc([N+](=O)[O-])c(C)c3)n2)c1 [CBK268177] | 118
Cc1ccccc1C(=O)Nc1cc(NC(=O)c2ccccc2C)cc(C(=O)O)c1 [CBK262007] | 109

Structure (SMILES) | viability at 28.5 h, 10 µM [%]
CN1CCN(CC2(Cn3ccnc3-c3ccc(C(=O)O)cc3)CC2)CC1 [CBK307641] | 75.1
COC1C(O)C(CO)OC1n1cc(C)c(N)nc1=O (stereo not drawn) [CBK201227] | 108
CC(C)(C)OC(=O)NCc1ccc(-c2cc(Nc3cccc(Cl)c3)ncn2)cc1 [CBK037842] | 92.8
Cn1cc(C(=O)NC2CCN(C(=O)c3ccc4c(c3)CCC4)CC2)cn1 [CBK305664] | 97.8
Cc1cccc(CNc2nccnc2-c2cccs2)c1 [CBK036808] | 104
Cc1oc(-c2ccccc2)cc1C(=O)Nc1ccccc1N1CCCNCC1 [CBK038940T] | 83.5
CNC(=O)Nc1ccc(C(C)(C)C)cc1Br [CBK086434] | 111
O=C(Nc1ncn(CC(=O)N2CCCCCC2)n1)c1ccsc1 [CBK304974] | 99.4
COC(=O)c1c(NC(=O)COc2ccccc2C(C)C)sc2c1CCCC2 [CBK266722] | 93.5
COCc1ccc(C(=O)NCC2CCCOC2)o1 (stereo not drawn) [CBK282188] | 83.3
O=S(=O)(N1CCCCC1)N1CCN(CC(O)COc2ccc(-c3ccccc3)cc2)CC1 (stereo not drawn) [CBK269370] | 94.9
CC(C)(C)OC(=O)N1CCN(c2cc(Cl)nc(N)n2)CC1 [CBK003505] | 91.8
Cc1cc(NC(=O)CSc2nnc3ccc(-c4ccccc4)nn23)no1 [CBK287679] | 108
Cc1ccccc1N1C(=O)c2ccc(C(=O)OCC(=O)c3ccc(Cl)c([N+](=O)[O-])c3)cc2C1=O [CBK264108] | 91.3
COc1ccc(C(CCN)c2ccccc2OC)cc1 (stereo not drawn) [CBK266125] | 103
O=C(c1ccc2occc2c1)N1CCCC2(CCN(Cc3ccccc3)C2)C1 (stereo not drawn) [CBK136882] | 105
O=C(OCc1nnsc1Cl)c1ccc(C(=O)c2ccccc2)cc1 [CBK297897] | 109
CC1CCC(N(C)Cc2nc3sc4c(c3c(=O)[nH]2)CCC4)CC1 (stereo not drawn) [CBK305876] | 88.7
O=C(O)c1sccc1Oc1ccc(F)cc1[N+](=O)[O-] [CBK066847] | 112
Clc1cncc(-c2ccccc2)n1 [CBK113371] | 93.8
CC(CC(=O)N1CCCC(c2cc3cccnc3[nH]2)C1)n1ccnc1 (stereo not drawn) [CBK285034] | 105
Cc1nn(C)c(C)c1OCC(=O)Nc1cc(C(C)(C)C)sc1C#N [CBK305383] | 101

Structure (SMILES) | viability at 28.5 h, 10 µM [%]
C/C(=N\NC(=O)CC1(C)OCCO1)c1oc(C)cc1C [CBK022234] | 99.1
Cc1cc(C(=O)NCc2c(-c3ccccc3)noc2C)n[nH]1 [CBK144076] | 91.4
COc1ccc(-c2nnc(SCC(=O)Nc3ccccc3[N+](=O)[O-])n2C)cc1 [CBK265609] | 103
O=C(N/N=C/C=C/c1ccc([N+](=O)[O-])cc1)C(O)c1ccccc1 (stereo not drawn) [CBK261373] | 81.5
COc1cccc(C2(NC(=O)c3c(C)noc3C)CCCC2)c1 [CBK283659] | 98.1
COc1ccc2[nH]cc(CCNC(=O)c3cccnc3)c2c1 [CBK122722] | 101
CC(=O)N1CCN(C(=O)Cn2ccc3ccccc32)CC(O)C1 (stereo not drawn) [CBK307552] | 98.1
CCN1CC2(CCN(Cc3cccc(-c4ccccn4)c3)CC2)CC1=O [CBK307399] | 107
O=C(NC(C(=O)N/N=C/c1cccs1)c1n[nH]c(=O)c2ccccc12)c1ccccc1 (stereo not drawn) [CBK261250] | 98
Cc1ccc(OC(C)C(=O)NCc2ccccc2)cc1 (stereo not drawn) [CBK269016] | 101
CN(C)CCN1C(=O)C2C3c4ccccc4C([N+](=O)[O-])(c4ccccc43)C2C1=O (stereo not drawn) [CBK269286] | 81.4
Cc1cc2ccccc2n2c(=O)n(Cc3cscn3)nc12 [CBK282381] | 102
COc1ccc(OCC(=O)Nc2cccc(-c3nnc4c5ccccc5c(C)nn34)c2)cc1 [CBK266743] | 105
COc1ccc(Nc2ccc(-c3ccsc3)cn2)c(C)c1 [CBK036855] | 109
C=CCOc1ccccc1OCCCN1CCN(C)CC1 [CBK269714C] | 95.6
Cn1c(=O)c2[nH]c(N3CCN(c4cccc(O)c4)CC3)nc2n(C)c1=O [CBK269760] | 104
CCCC/C=C/c1cnc2[nH]c(=O)n(Cc3ccc(S(N)(=O)=O)cc3)c2n1 [CBK064956] | 98.8
COc1ccc2ncc(C(=O)O)c(Nc3ccccc3C)c2c1 [CBK269522C] | 104
N#Cc1nccnc1NCc1ccccc1CN1CCCC1CO (stereo not drawn) [CBK306418] | 102
COCC(=O)N1CCC(NC(=O)N(CCc2ccccc2)Cc2ccccc2)CC1 [CBK174877] | 102

Same assay, conditions: human, hela cells, % viability, bulk resorufin, single well

Structure (SMILES) | viability at 28.5 h, 10 µM [%]
COc1cccc2c1OC1(CCN(C(=O)Nc3ccc(F)cc3F)CC1)OC2 [CBK060689] | 100
